Assay results reported in patent US8088731B2, “Use of GLP-1 compound for treatment of critically ill patients” (Novo Nordisk A/S, priority 2002, dated 2012).

Assays:
[1] = tested on: subjects with type 2 diabetes; experiment: Graded glucose infusion crossover study of beta cell sensitivity to glucose after a single dose; assay type: in vivo, human; settings: single dose 7.5 μg/kg
Description: Using a graded glucose infusion protocol with plasma glucose levels matched over the range of 5 to 12 mmol/L beta cell sensitivity was assessed. Insulin secretion rates (ISR) were estimated by deconvolution of circulating C-peptide concentrations. Findings were compared to responses of 10 healthy, nondiabetic volunteers to the same glucose infusion protocol.

[2] = tested on: subjects with type 2 diabetes; experiment: 12 week randomised, double-blind, dose-response, placebo controlled and open label glimepiride study of glucose lowering effect; assay type: in vivo, human; settings: 12 weeks
Description: The dose of glimepiride was adjusted during the first 4 weeks based on glycaemic control with a treatment target of fasting serum glucose <7 mM, with a dose not exceeding 4 mg/day. Results

SMILES | C-peptide levels compared to placebo ([1]; type 2 diabetes subjects) | hypoglycemic events ([1]; type 2 diabetes subjects) | insulin levels compared to placebo ([1]; type 2 diabetes subjects) | slope of ISR vs. plasma glucose ([1]; type 2 diabetes subjects, graded glucose infusion, p<0.014 vs placebo) | insulin secretion at low glucose levels ([1]; versus non-diabetic controls) | mean serum fasting glucose decrease compared with placebo ([2]; 0.60 mg once daily s.c., p<0.0001) [mmol/L] | mean decrease compared to placebo in HbA1c ([2]; 0.60 mg once daily s.c., p=0.0002) [percentage points] | mean decrease compared to placebo in HbA1c ([2]; 0.75 mg once daily s.c., p<0.0001) [percentage points] | mean serum fasting glucose decrease compared with placebo ([2]; 0.75 mg once daily s.c., p=0.0003) [mmol/L] | subjects that reported any hypoglycaemic episode ([2]; two highest dose groups (0.60 and 0.75 mg)) [%] | subjects that reported any hypoglycaemic episode ([2]; glimepiride group) [%] | reduction compared to placebo on FSG ([2]; glimepiride p.o. once daily, open-label, titrated, not exceeding 4 mg/day) [mM] | reduction compared to placebo on HbA1c ([2]; glimepiride p.o. once daily, open-label, titrated, not exceeding 4 mg/day, p=0.0001) [%]
CCCCCCCCCCCCCCCC(=O)N[C@@H](CCC(=O)NCCCC[C@H](NC(=O)[C@H](C)NC(=O)[C@H](C)NC(=O)[C@H](CCC(N)=O)NC(=O)CNC(=O)[C@H](CCC(=O)O)NC(=O)[C@H](CC(C)C)NC(=O)[C@H](Cc1ccc(O)cc1)NC(=O)[C@H](CO)NC(=O)[C@H](CO)NC(=O)[C@@H](NC(=O)[C@H](CC(=O)O)NC(=O)[C@H](CO)NC(=O)[C@@H](NC(=O)[C@H](Cc1ccccc1)NC(=O)[C@@H](NC(=O)CNC(=O)[C@H](CCC(=O)O)NC(=O)[C@H](C)NC(=O)[C@@H](N)Cc1cnc[nH]1)[C@@H](C)O)[C@@H](C)O)C(C)C)C(=O)N[C@@H](CCC(=O)O)C(=O)N[C@@H](Cc1ccccc1)C(=O)N[C@H](C(=O)N[C@@H](C)C(=O)N[C@@H](Cc1c[nH]c2ccccc12)C(=O)N[C@@H](CC(C)C)C(=O)N[C@H](C(=O)N[C@@H](CCCNC(=N)N)C(=O)NCC(=O)N[C@@H](CCCNC(=N)N)C(=O)NCC(=O)O)C(C)C)[C@@H](C)CC)C(=O)O [NN2211, Arg^34, Lys^26(N^ε-(γ-Glu(N^α-hexadecanoyl)))-GLP-1(7-37)] | increased | No hypoglycemic events occurred | increased | 1.26±0.36 pmol*L/(min*mmol*kg) | comparable to the non-diabetic controls | 2.14 | 0.70 | 0.75 | 1.82 | 7 |  |  | 
CCC1=C(C)CN(C(=O)NCCc2ccc(S(=O)(=O)NC(=O)N[C@H]3CC[C@H](C)CC3)cc2)C1=O [glimepiride, reference compound] |  |  |  |  |  |  |  |  |  |  | 31 | -2.6 | 0.74
